OC[C@@H](O)[C@@H](O)[C@H](O)[C@@H](O)CO
solubility (mole fraction)
Details | in THF | in acetone | in acetonitrile | in ethanol | in ethyl acetate | in methanol | in n-butanol | in n-propanol
278.15 K | 0.000363 | 0.000225 | 0.000109 | 0.000598 | 0.000239 | 0.00205 | 0.000449 | 0.000553
283.15 K | 0.000406 | 0.000255 | 0.000129 | 0.000753 | 0.000259 | 0.00275 | 0.000533 | 0.000677
288.15 K | 0.000446 | 0.000287 | 0.000153 | 0.000944 | 0.000289 | 0.00351 | 0.000627 | 0.000838
293.15 K | 0.000489 | 0.000328 | 0.000178 | 0.00117 | 0.000317 | 0.00461 | 0.000748 | 0.00102
298.15 K | 0.000544 | 0.000382 | 0.000208 | 0.00146 | 0.000354 | 0.00585 | 0.000895 | 0.00124
303.15 K | 0.000597 | 0.000436 | 0.000249 | 0.00181 | 0.000392 | 0.00739 | 0.00106 | 0.00152
